Here are results for 2 molecules from publication PMC9287337 (Scientific Reports, 2022).

Like-named read-outs stand apart in the source and are kept apart here.

The test system of one series is C2C12 cells. The series can be described thus: Live cell count (acridine orange/propidium iodide). As to conditions: 24 h; for Average increase in number of cells compared to control: average over 0.01–10 µM. In kind it is cell-based, mouse. The method, then:
For the concentrations tested, SY-LB-35 increased the number of cells by an average of approximately 40% (Fig. 4A) and SY-LB-57 enhanced cell numbers to an average increase of 70% compared to the control (Fig. 4B). […] Moreover, both novel compounds induce a substantial proliferative effect in C2C12 cells.
C2C12 mouse myoblast cells (ATCC®, Manassas, VA, USA) were maintained in complete growth media (DMEM/10% FBS/1X Penicillin/Streptomycin/Glutamine solution (PSG)) at 37 °C in 5% CO2. DMEM media (Dulbecco’s Modified Eagle’s Medium with high glucose and L-glutamine and without sodium pyruvate) was from Caisson Labs (Smithfield, UT, USA). FBS was from Atlanta Biologicals (Flowery Branch, GA, USA). To determine the cell concentration, 18 µL cell suspension was mixed with 2 µL Acridine orange/Propidium iodide stain (Logos Biosystems, Annandale, VA, USA). Next, the cell concentration and percent viability were determined from 10 µL stained cells using the Luna-FL™ Dual Fluorescence Cell Counter from Logos Biosystems. For cell counts following treatment with SY-LB-35 or SY-LB-57, C2C12 cells (500 µL) were seeded into 24-well plates at 1 × 10^5 cells/mL, grown to 80% confluency, serum-starved for 16–18 h using Serum-Starvation Medium (SS medium: DMEM/1X Penicillin/Streptomycin solution (PS)) and treated for 24 h with the novel compounds. The treated cells were then collected by trypsinization, pelleted at 2000 rpm for 3 min at RT, resuspended and counted.

In series [1] the test system is p-Smad nuclear translocation. The series can be described thus: Immunofluorescent labeling of p-Smad nuclear translocation. In kind it is cell-based, mouse. As to conditions: 1 µM, 30 min.
Description: Serum-starved C2C12 cells grown on poly-D-lysine (PDL)-coated coverslips were stimulated with BMP2 (50 ng/mL), SY-LB-35 (1 µM) or SY-LB-57 (1 µM) for 30 min.
In a 24-well plate, 12 mm glass coverslips were coated for 1 h at RT with 500 µL PDL (0.1 mg/mL/ 0.1 M Boric acid), washed 4 times with cell culture-grade distilled water and sterilized under UV light for 30 min. C2C12 cells (500 µL) were seeded onto the PDL-coated coverslips at a density of 1 × 10^5 cells/mL, grown to 80% confluency and starved in SS medium for 2 h. Next, the cells were treated with 50 ng/mL BMP2 or 1 µM SY-LB-35 or SY-LB-57 for 15 min (for p-Akt labelling) or 30 min (for p-Smad labelling). Cells were then fixed using ice-cold 4% PFA/PBS for 10 min at RT. Next, the coverslips were washed with ice-cold 1X PBS, transferred to a humidified chamber and incubated (100 µL/coverslip) in Permeabilization solution (0.1% Triton X-100/PBS) for 15 min, then Blocking Buffer (10% heat inactivated goat serum/ 0.3% Triton X-100/PBS) for 30 min. Anti-p-Smad antibodies in Antibody Dilution Buffer (1% BSA/0.1% Tween 20/PBS) were added for 1 h and the coverslips were washed 4 times with 1X PBS. The Cy3-conjugated goat anti-rabbit IgG secondary antibodies (Jackson Immuno Research Labs, West Grove, PA, USA) in Antibody Dilution Buffer were added for 1 h followed by 4 washes with 1X PBS and once with dH2O. […]
In series [2] the test system is p-Akt (Akt phosphorylation). The series can be described thus: Western blot of p-Akt normalized to total Akt. In kind it is cell-based. As to conditions: Mus musculus, 0.25 h, 15 min, read-out: p-Akt level, percent of control. On the procedure:
(§1) To ascertain whether these novel indolyl-benzimidazole compounds can also activate non-canonical BMP-related pathways, stimulation of the PI3K/Akt pathway was assessed by first monitoring changes in the level of p-Akt in response to SY-LB-35 and SY-LB-57.
(§2) C2C12 cells (3 mL) were seeded into 35 mm dishes at 7.5 × 10^4 cells/mL in complete growth medium, incubated to reach 80% confluence and serum-starved for 16–18 h. […] Thereafter, the cultures were washed with ice-cold 1X TBS for 2 min. Lysis Buffer (Cell Signaling Technology, Danvers, MA, USA) supplemented with 1 mM PMSF (phenylmethylsulphonyl fluoride) was added to the cultures and whole cell lysates were prepared.
Laemmli sample buffer (4X) was added to the whole cell lysates (20 µg) to a final concentration of 1X and heated at 100 °C for 5 min. The samples were immediately cooled on ice for 5 min and centrifuged at 9500 rpm for 2 min at RT. The samples and the Precision Plus Protein Standard (5 µL; Bio-Rad, Hercules, CA, USA) were loaded on 12% SDS polyacrylamide gels. Protein was separated using the Bio-Rad Mini Protean II Gel Electrophoresis System at 135 V. Meanwhile, 0.2 µm nitrocellulose membranes were pre-incubated in cold 1X Transfer Buffer (10 mM Tris/2.5 mM glycine/20% methanol) for at least 30 min. Next, the separated proteins were transferred at 100 V onto the pre-equilibrated nitrocellulose membranes for 1 h in Transfer Buffer, followed by blocking in 5% BSA/0.1% Tween 20/1X TBS for 30 min. The membranes were incubated overnight at 4 °C with the desired primary rabbit monoclonal antibody (p-Smad1/5(S463/465)/9(S465/467), Smad1 (D5907) XP®, p-Akt (Ser473) (D9E) XP®, or Akt (pan) (C67E7), p-SAPK/JNK (Thr183/Tyr185), SAPK/JNK, β-actin (Cell Signaling Technologies, Danvers, MA, USA)) or rabbit polyclonal antibody (phospho-PI3 Kinase p85 (Tyr458)/p55 (Tyr199) antibody (Cell Signaling Technologies, Danvers, MA, USA), p-p38 MAPK, p38 MAPK, p-ERK1, ERK1/2) (Abclonal, Woburn, MA, USA)) in Antibody Dilution Buffer (1% BSA/0.1% Tween 20/1X TBS) and then washed with 1X TBST (0.1% Tween 20/1X TBS) three times for 15 min. HRP-conjugated Goat Anti-Rabbit IgG secondary antibody (Santa Cruz Biotechnology, Inc., Dallas, TX, USA) in Antibody Dilution Buffer was added to the membranes for 1 h at RT followed by three 15-min washes with 1X TBST. Finally, the blots were developed using SuperSignal ™ West Femto HRP Substrate solutions (Thermo Scientific, Rockford, IL, USA) and analysed using the Omega Lum™ G Imaging System (San Francisco, CA, USA). Quantification of chemiluminescent signals was carried out using ImageJ (Image Processing and Analysis in Java 1.8.0_112).
Background: In western blotting, separated proteins are transferred to a membrane and probed.

Series [3] deals with p-Akt cytoplasmic localization. Briefly: Immunofluorescent labeling of p-Akt. In kind it is cell-based, mouse. As to conditions: 1 µM, 15 min. On the procedure: as §1
The test system of another series is p-ERK. Briefly: Western blot of p-ERK. In kind it is cell-based, mouse. As to conditions: 0.01–10 µM, 15 min. The method, then:
Whole cell lysates were prepared from the treated cultures for Western blot analysis.
as §2
Laemmli sample buffer (4X) was added to the whole cell lysates (20 µg) to a final concentration of 1X and heated at 100 °C for 5 min. The samples were immediately cooled on ice for 5 min and centrifuged at 9500 rpm for 2 min at RT. The samples and the Precision Plus Protein Standard (5 µL; Bio-Rad, Hercules, CA, USA) were loaded on 12% SDS polyacrylamide gels. […] Finally, the blots were developed using SuperSignal ™ West Femto HRP Substrate solutions (Thermo Scientific, Rockford, IL, USA) and analysed using the Omega Lum™ G Imaging System (San Francisco, CA, USA). Quantification of chemiluminescent signals was carried out using ImageJ (Image Processing and Analysis in Java 1.8.0_112).

Series [4] in a line: Cell viability assay in presence or absence of Dorsomorphin. In kind it is cell-based, mouse. As to conditions: mouse, serum-starved C2C12 cells. The method, then:
To resolve whether the SY-LB-35 or SY-LB-57 compound requires type I BMP receptor activity for the induction of cell viability in C2C12 cells, cell viability assays were carried out in the presence or absence of 10 µM DM.
C2C12 cells (100 µL) were seeded in a 96-well plate at 5 × 10^5 cells/mL and incubated overnight in complete growth media to achieve 80% confluency followed by serum-starvation for 16–18 h. […] For BMP receptor inhibition, cell viability assays were carried out in presence or absence of Dorsomorphin (DM; 10 µM; Sigma Aldrich, St. Louis, MO, USA), a non-selective inhibitor of type I BMP receptor activity.
Next, reagents from the RealTime-Glo™ MT Cell Viability Assay Kit (Promega, Madison, WI, USA) were diluted in SS medium and used according to manufacturer’s protocol. Cellular luminescence was measured using the FilterMax F5 Multi-mode Microplate Reader (Molecular Devices, San Jose, CA, USA). Data from three independent experiments with individual experiments carried out in triplicate was determined and reported as a percentage of control.

Where [5] appears, read: Dorsomorphin 10 µM, read-out: Cell viability, DM(+).
Setting [6] is: without Dorsomorphin, read-out: Cell viability, DM(−).

Consider `Oc1ccc2[nH]c(-c3nc4ccccc4[nH]3)cc2c1` [SY-LB-35], for which the Cell number in the series on C2C12 cells (0.01 µM) is listed as 6.8 × 10^5 cells. Further, the Cell number with C2C12 cells (0.1 µM) is listed as 6.6 × 10^5 cells. In addition, the Cell number in the series with C2C12 cells (1 µM) was 6.8 × 10^5 cells. Besides, in the series on C2C12 cells (10 µM), the Cell number is recorded as 6.4 × 10^5 cells. Further, the “Average increase in number of cells compared to control” value in the series on C2C12 cells is given as “approximately 40%”. In addition, the p-Smad nuclear translocation result in series [1] is “induced the translocation of p-Smad into the nucleus”. In addition, in series [2], the activity at 0.01 µM was 945% and the activity at 10 µM was 766%. For the same molecule, the activity at 0.1 µM in series [2] (0.1 µM) came to 826%. In series [2] (1 µM), the activity at 1 µM worked out at 887%. The p-Akt immunofluorescent labeling entry in series [3] is recorded as “robust, punctate, cytoplasmic p-Akt labeling”. The p-ERK level entry with p-ERK was “stimulated increases”. In series [4] (setting [5]), the viability at 24 h, 0.01 µM was found to be 98%; the viability at 24 h, 0.1 µM came out at 103%; the viability at 24 h, 1 µM came out at 102%; the viability at 24 h, 10 µM was 82%. In series [4] (setting [5]), the viability at 24 h, 100 µM stood at 30%. Besides, in series [4] (setting [6]), the viability at 24 h, 0.01 µM was found to be 266%; the viability at 24 h, 0.1 µM was determined as 269%; the viability at 24 h, 1 µM stood at 218%; the viability at 24 h, 10 µM amounted to 147%. For the same molecule, the viability at 24 h, 100 µM in series [4] (setting [6]) is 69%.
On to `COc1ccc2[nH]c(-c3nc4ccccc4[nH]3)cc2c1` [SY-LB-57], for which the Cell number is reported as 7.4 × 10^5 cells with C2C12 cells (0.01 µM), 6.5 × 10^5 cells in the series with C2C12 cells (0.1 µM), 7.2 × 10^5 cells in the series with C2C12 cells (1 µM) and 6.0 × 10^5 cells in the series with C2C12 cells (10 µM). For the same molecule, the “Average increase in number of cells compared to control” value with C2C12 cells is on record as 70%. In series [1], the p-Smad nuclear translocation entry is “induced the translocation of p-Smad into the nucleus”. Moreover, in series [2], the activity at 0.01 µM came to 827%. Further, in series [2], the activity at 10 µM worked out at 995%. Also, the p-Akt immunofluorescent labeling result in series [3] is on record as “robust, punctate, cytoplasmic p-Akt labeling”. Also, the p-ERK level entry with p-ERK is reported as “stimulated increases”. In addition, the viability at 24 h, 0.01 µM was determined as 120% in series [4] (setting [5]) and 384% in series [4] (setting [6]). The viability at 24 h, 0.1 µM is 107% in series [4] (setting [5]) and 380% in series [4] (setting [6]). The viability at 24 h, 1 µM came to 111% in series [4] (setting [5]) and 321% in series [4] (setting [6]). For the same molecule, the viability at 24 h, 10 µM in series [4] (setting [5]) was 111%; in series [4] (setting [6]), 289%.

For orientation: viability means a read-out of living cells in per cent, often relative to untreated cells.
